Converted amounts (≈) assume the structure as drawn.
Key:
Test in all cases: in vitro antibacterial evaluation, MIC by broth dilution
Format in all cases: cell-based
Escherichia coli = conditions: 18 hours at 35° C.
Streptococcus sp. = conditions: broth dilution, 18 hours at 35° C.
In short: (§1)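 MIC = lowest antibiotic concentration preventing visible growth; inoculum 5×10^5 CFU/mL; drug range 64-0.06 μg/mL; Muller-Hinton II […]; NCCLS M7-A2 guidance.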

Enterococcus sp. = conditions: broth dilution, 18 hours at 35° C.
In short: as §1

Staphylococcus sp. = conditions: broth dilution, 18 hours at 35° C.
In short: as §1

SMILES: CC(c1ccccc1)C1NC(=O)CNC(=O)C(CO)NC(=O)C(CC2CNC(=N)N2C2OC(CO)C(O)C(O)C2O)NC(=O)C(CC2CNC(=N)N2)NC(=O)C(Cc2ccc(OC3OC(CO)C(OC4OC(COCc5ccc(OCc6ccccc6)cc5)C(O)C(O)C4O)C(O)C3O)cc2)NC1=O (stereo not shown) [Example 246]
- MIC Escherichia coli (ATCC 25922) (Escherichia coli): 128 µg/mL (≈ 87.7 µM)
- MIC Escherichia coli (GC 4559) (Escherichia coli): 64 µg/mL (≈ 43.8 µM)
- MIC Escherichia coli (GC 4560) (Escherichia coli): 4 µg/mL (≈ 2.74 µM)
- MIC Streptococcus agalactiae (GC 4564) (Streptococcus sp.): 2 µg/mL (≈ 1.37 µM)
- MIC Streptococcus pneumoniae (ATCC 6301) (Streptococcus sp.): 2 µg/mL (≈ 1.37 µM)
- MIC Streptococcus pneumoniae (GC 1894) (Streptococcus sp.): 0.5 µg/mL (≈ 0.343 µM)
- MIC Streptococcus pneumoniae (GC 4565) (Streptococcus sp.): 2 µg/mL (≈ 1.37 µM)
- MIC Streptococcus pyogenes (GC 4563) (Streptococcus sp.): 4 µg/mL (≈ 2.74 µM)
- MIC Streptococcus pneumoniae (ATCC 6301) (Streptococcus sp.; inoculum 5×10^5 CFU/mL, strain ATCC 6301): 2 µg/mL (≈ 1.37 µM)
- MIC Streptococcus pneumoniae (GC 1894) (Streptococcus sp.; inoculum 5×10^5 CFU/mL, strain GC 1894): 0.5 µg/mL (≈ 0.343 µM)
- MIC Streptococcus pyogenes (GC 4563) (Streptococcus sp.; inoculum 5×10^5 CFU/mL, strain GC 4563): 4 µg/mL (≈ 2.74 µM)
- MIC Streptococcus agalactiae (GC 4564) (Streptococcus sp.; inoculum 5×10^5 CFU/mL, strain GC 4564): 2 µg/mL (≈ 1.37 µM)
- MIC Streptococcus pneumoniae (GC 4565) (Streptococcus sp.; inoculum 5×10^5 CFU/mL, strain GC 4565): 2 µg/mL (≈ 1.37 µM)
- MIC Enterococcus avium (GC 4558) (Enterococcus sp.): 8 µg/mL (≈ 5.48 µM)
- MIC Enterococcus faecalis (ATCC 29212) (Enterococcus sp.): 16 µg/mL (≈ 11 µM)
- MIC Enterococcus faecalis (GC 2242) (Enterococcus sp.): 16 µg/mL (≈ 11 µM)
- MIC Enterococcus faecalis (GC 2691) (Enterococcus sp.): 32 µg/mL (≈ 21.9 µM)
- MIC Enterococcus faecalis (GC 3059) (Enterococcus sp.): 32 µg/mL (≈ 21.9 µM)
- MIC Enterococcus faecalis (GC 4552) (Enterococcus sp.): 16 µg/mL (≈ 11 µM)
- MIC Enterococcus faecalis (GC 4553) (Enterococcus sp.): 8 µg/mL (≈ 5.48 µM)
- MIC Enterococcus faecalis (GC 4554) (Enterococcus sp.): 32 µg/mL (≈ 21.9 µM)
- MIC Enterococcus faecalis (GC 6189) (Enterococcus sp.): 16 µg/mL (≈ 11 µM)
- MIC Enterococcus faecium (GC 2243) (Enterococcus sp.): 16 µg/mL (≈ 11 µM)
- MIC Enterococcus faecium (GC 4556) (Enterococcus sp.): 16 µg/mL (≈ 11 µM)
- MIC Enterococcus faecium (GC 4557) (Enterococcus sp.): 4 µg/mL (≈ 2.74 µM)
- MIC Enterococcus faecalis (ATCC 29212) (Enterococcus sp.; strain ATCC 29212): 16 µg/mL (≈ 11 µM)
- MIC Enterococcus faecium (GC 2243) (Enterococcus sp.; strain GC 2243): 16 µg/mL (≈ 11 µM)
- MIC Enterococcus faecalis (GC 4552) (Enterococcus sp.; strain GC 4552): 16 µg/mL (≈ 11 µM)
- MIC Enterococcus faecalis (GC 4553) (Enterococcus sp.; strain GC 4553): 8 µg/mL (≈ 5.48 µM)
- MIC Enterococcus faecalis (GC 4554) (Enterococcus sp.; strain GC 4554): 32 µg/mL (≈ 21.9 µM)
- MIC Enterococcus faecium (GC 4556) (Enterococcus sp.; strain GC 4556): 16 µg/mL (≈ 11 µM)
- MIC Enterococcus faecium (GC 4557) (Enterococcus sp.; strain GC 4557): 4 µg/mL (≈ 2.74 µM)
- MIC Enterococcus avium (GC 4558) (Enterococcus sp.; strain GC 4558): 8 µg/mL (≈ 5.48 µM)
- MIC Enterococcus faecalis (GC 6189) (Enterococcus sp.; strain GC 6189): 16 µg/mL (≈ 11 µM)
- MIC Enterococcus faecalis (GC 2242) (Enterococcus sp.; inoculum 5×10^5 CFU/mL, strain GC 2242): 16 µg/mL (≈ 11 µM)
- MIC Enterococcus faecalis (GC 2691) (Enterococcus sp.; inoculum 5×10^5 CFU/mL, strain GC 2691): 32 µg/mL (≈ 21.9 µM)
- MIC Enterococcus faecalis (GC 3059) (Enterococcus sp.; inoculum 5×10^5 CFU/mL, strain GC 3059): 32 µg/mL (≈ 21.9 µM)
- MIC Coagulase Negative Staphylococcus (GC 4547) (Staphylococcus sp.): 4 µg/mL (≈ 2.74 µM)
- MIC Coagulase Negative Staphylococcus (GC 4548) (Staphylococcus sp.): 4 µg/mL (≈ 2.74 µM)
- MIC Coagulase Negative Staphylococcus (GC 4549) (Staphylococcus sp.): 4 µg/mL (≈ 2.74 µM)
- MIC Coagulase Negative Staphylococcus (GC 4551) (Staphylococcus sp.): 8 µg/mL (≈ 5.48 µM)
- MIC Coagulase Negative Staphylococcus (GC 6257) (Staphylococcus sp.): 2 µg/mL (≈ 1.37 µM)
- MIC Staphylococcus aureus (ATCC 29213) (Staphylococcus sp.): 4 µg/mL (≈ 2.74 µM)
- MIC Staphylococcus aureus (GC 1131) (Staphylococcus sp.): 8 µg/mL (≈ 5.48 µM)
- MIC Staphylococcus aureus (GC 3051) (Staphylococcus sp.): 4 µg/mL (≈ 2.74 µM)
- MIC Staphylococcus aureus (GC 3053) (Staphylococcus sp.): 4 µg/mL (≈ 2.74 µM)
- MIC Staphylococcus aureus (GC 4541) (Staphylococcus sp.): 4 µg/mL (≈ 2.74 µM)
- MIC Staphylococcus aureus (GC 4542) (Staphylococcus sp.): 4 µg/mL (≈ 2.74 µM)
- MIC Staphylococcus aureus (GC 4544) (Staphylococcus sp.): 8 µg/mL (≈ 5.48 µM)
- MIC Staphylococcus aureus (GC 4545) (Staphylococcus sp.): 4 µg/mL (≈ 2.74 µM)
- MIC Staphylococcus aureus-SMITH (GC 4543) (Staphylococcus sp.): 4 µg/mL (≈ 2.74 µM)
- MIC Staphylococcus haemolyticus (GC 4546) (Staphylococcus sp.): 4 µg/mL (≈ 2.74 µM)
- MIC Staphylococcus aureus (ATCC 29213) (Staphylococcus sp.; strain ATCC 29213): 4 µg/mL (≈ 2.74 µM)
- MIC Staphylococcus aureus (GC 1131) (Staphylococcus sp.; strain GC 1131): 8 µg/mL (≈ 5.48 µM)
- MIC Staphylococcus aureus (GC 3051) (Staphylococcus sp.; strain GC 3051): 4 µg/mL (≈ 2.74 µM)
- MIC Staphylococcus aureus (GC 3053) (Staphylococcus sp.; strain GC 3053): 4 µg/mL (≈ 2.74 µM)
- MIC Staphylococcus aureus (GC 4541) (Staphylococcus sp.; strain GC 4541): 4 µg/mL (≈ 2.74 µM)
- MIC Staphylococcus aureus (GC 4542) (Staphylococcus sp.; strain GC 4542): 4 µg/mL (≈ 2.74 µM)
- MIC Staphylococcus aureus-SMITH (GC 4543) (Staphylococcus sp.; strain GC 4543): 4 µg/mL (≈ 2.74 µM)
- MIC Staphylococcus aureus (GC 4544) (Staphylococcus sp.; strain GC 4544): 8 µg/mL (≈ 5.48 µM)
- MIC Staphylococcus aureus (GC 4545) (Staphylococcus sp.; strain GC 4545): 4 µg/mL (≈ 2.74 µM)
- MIC Staphylococcus haemolyticus (GC 4546) (Staphylococcus sp.; strain GC 4546): 4 µg/mL (≈ 2.74 µM)
- MIC Coagulase Negative Staphylococcus (GC 4547) (Staphylococcus sp.; strain GC 4547): 4 µg/mL (≈ 2.74 µM)
- MIC Coagulase Negative Staphylococcus (GC 4548) (Staphylococcus sp.; strain GC 4548): 4 µg/mL (≈ 2.74 µM)
- MIC Coagulase Negative Staphylococcus (GC 4549) (Staphylococcus sp.; strain GC 4549): 4 µg/mL (≈ 2.74 µM)
- MIC Coagulase Negative Staphylococcus (GC 4551) (Staphylococcus sp.; strain GC 4551): 8 µg/mL (≈ 5.48 µM)
- MIC Coagulase Negative Staphylococcus (GC 6257) (Staphylococcus sp.; strain GC 6257): 2 µg/mL (≈ 1.37 µM)

— patent US6914045B2, “Glycopeptide antibiotics” (Wyeth Holdings Corporation, priority 2001, dated 2005)
